# Source: patent publication US20190135793A1, “HETEROCYCLIC INHIBITORS OF KDM5 FOR THE TREATMENT OF DISEASE” (Board of Regents, The University of Texas System, priority 2017, published 2019)
# Where two headings read alike, the source gives them in different places.
# Columns and labels:
# KDM4C = molecular target: T1, KDM4C (Homo sapiens, UniProt Q9H3R0); assay: KDM4C AlphaScreen assay; type: biochemical; conditions: AlphaScreen; full length KDM4C 0.2 nM; biotinylated H3K9Me3 peptide 3 nM; 30 minutes at room temperature
# T1 construct: Full length of KDM5B and KDM4C protein were purchased from Active Motif; purchased Active Motif 31858
# T1 sequence (Q9H3R0 1-1056): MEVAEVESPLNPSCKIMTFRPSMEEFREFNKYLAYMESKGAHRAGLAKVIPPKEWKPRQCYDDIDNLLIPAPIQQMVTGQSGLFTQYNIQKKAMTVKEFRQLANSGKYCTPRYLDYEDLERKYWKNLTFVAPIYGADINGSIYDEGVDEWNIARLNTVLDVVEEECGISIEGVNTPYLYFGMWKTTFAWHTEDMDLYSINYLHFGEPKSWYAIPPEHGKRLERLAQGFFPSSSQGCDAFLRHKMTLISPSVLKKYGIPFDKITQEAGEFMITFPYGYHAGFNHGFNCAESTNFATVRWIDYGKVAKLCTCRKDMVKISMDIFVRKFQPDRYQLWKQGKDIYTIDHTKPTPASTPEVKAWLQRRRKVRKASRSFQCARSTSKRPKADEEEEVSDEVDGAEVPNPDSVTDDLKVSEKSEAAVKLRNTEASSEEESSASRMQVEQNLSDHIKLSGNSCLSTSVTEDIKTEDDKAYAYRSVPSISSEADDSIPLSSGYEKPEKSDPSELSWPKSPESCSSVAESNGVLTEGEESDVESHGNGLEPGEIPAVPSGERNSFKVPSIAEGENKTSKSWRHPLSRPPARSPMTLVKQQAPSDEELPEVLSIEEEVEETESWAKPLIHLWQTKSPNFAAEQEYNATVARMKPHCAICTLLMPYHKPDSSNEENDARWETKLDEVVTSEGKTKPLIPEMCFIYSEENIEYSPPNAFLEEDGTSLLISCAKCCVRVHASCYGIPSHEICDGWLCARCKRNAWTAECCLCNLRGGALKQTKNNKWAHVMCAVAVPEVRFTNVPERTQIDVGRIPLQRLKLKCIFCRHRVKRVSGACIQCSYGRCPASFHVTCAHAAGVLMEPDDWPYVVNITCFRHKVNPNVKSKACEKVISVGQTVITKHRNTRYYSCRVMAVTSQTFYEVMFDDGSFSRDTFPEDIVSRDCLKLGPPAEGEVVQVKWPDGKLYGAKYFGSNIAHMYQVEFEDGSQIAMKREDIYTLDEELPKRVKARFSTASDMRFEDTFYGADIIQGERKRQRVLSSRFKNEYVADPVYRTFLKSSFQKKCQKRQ
# Summary of the method: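 Full-length KDM4C (0.2 nM final) was preincubated 15 min at RT with compound in HEPES pH 7.4 with Tween-20, BSA and TCEP. The reaction ran 30 min at RT after adding biotinylated peptide (3 nM final) in buffer with Fe(II), α-ketoglutarate and ascorbate. EDTA-containing AlphaScreen beads stopped it; IC50 was curve-fitted.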
# KDM5B = molecular target: T2, KDM5B (Homo sapiens, UniProt Q9UGL1); assay: biochemical
# T2 construct: Full length of KDM5B and KDM4C protein were purchased from Active Motif; purchased Active Motif 31832
# Summary of the method: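 KDM5B (0.5 nM final) was preincubated with compound for 15 min at room temperature, then reacted with biotinylated peptide (3 nM final) for 25 min at room temperature.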
# [1] = AlphaScreen, full length KDM5B 0.5 nM, biotinylated H3K4Me3 peptide 3 nM, 25 minutes at room temperature, read-out: KDM5B (IC50)
# T2 sequence (Q9UGL1 whole entry): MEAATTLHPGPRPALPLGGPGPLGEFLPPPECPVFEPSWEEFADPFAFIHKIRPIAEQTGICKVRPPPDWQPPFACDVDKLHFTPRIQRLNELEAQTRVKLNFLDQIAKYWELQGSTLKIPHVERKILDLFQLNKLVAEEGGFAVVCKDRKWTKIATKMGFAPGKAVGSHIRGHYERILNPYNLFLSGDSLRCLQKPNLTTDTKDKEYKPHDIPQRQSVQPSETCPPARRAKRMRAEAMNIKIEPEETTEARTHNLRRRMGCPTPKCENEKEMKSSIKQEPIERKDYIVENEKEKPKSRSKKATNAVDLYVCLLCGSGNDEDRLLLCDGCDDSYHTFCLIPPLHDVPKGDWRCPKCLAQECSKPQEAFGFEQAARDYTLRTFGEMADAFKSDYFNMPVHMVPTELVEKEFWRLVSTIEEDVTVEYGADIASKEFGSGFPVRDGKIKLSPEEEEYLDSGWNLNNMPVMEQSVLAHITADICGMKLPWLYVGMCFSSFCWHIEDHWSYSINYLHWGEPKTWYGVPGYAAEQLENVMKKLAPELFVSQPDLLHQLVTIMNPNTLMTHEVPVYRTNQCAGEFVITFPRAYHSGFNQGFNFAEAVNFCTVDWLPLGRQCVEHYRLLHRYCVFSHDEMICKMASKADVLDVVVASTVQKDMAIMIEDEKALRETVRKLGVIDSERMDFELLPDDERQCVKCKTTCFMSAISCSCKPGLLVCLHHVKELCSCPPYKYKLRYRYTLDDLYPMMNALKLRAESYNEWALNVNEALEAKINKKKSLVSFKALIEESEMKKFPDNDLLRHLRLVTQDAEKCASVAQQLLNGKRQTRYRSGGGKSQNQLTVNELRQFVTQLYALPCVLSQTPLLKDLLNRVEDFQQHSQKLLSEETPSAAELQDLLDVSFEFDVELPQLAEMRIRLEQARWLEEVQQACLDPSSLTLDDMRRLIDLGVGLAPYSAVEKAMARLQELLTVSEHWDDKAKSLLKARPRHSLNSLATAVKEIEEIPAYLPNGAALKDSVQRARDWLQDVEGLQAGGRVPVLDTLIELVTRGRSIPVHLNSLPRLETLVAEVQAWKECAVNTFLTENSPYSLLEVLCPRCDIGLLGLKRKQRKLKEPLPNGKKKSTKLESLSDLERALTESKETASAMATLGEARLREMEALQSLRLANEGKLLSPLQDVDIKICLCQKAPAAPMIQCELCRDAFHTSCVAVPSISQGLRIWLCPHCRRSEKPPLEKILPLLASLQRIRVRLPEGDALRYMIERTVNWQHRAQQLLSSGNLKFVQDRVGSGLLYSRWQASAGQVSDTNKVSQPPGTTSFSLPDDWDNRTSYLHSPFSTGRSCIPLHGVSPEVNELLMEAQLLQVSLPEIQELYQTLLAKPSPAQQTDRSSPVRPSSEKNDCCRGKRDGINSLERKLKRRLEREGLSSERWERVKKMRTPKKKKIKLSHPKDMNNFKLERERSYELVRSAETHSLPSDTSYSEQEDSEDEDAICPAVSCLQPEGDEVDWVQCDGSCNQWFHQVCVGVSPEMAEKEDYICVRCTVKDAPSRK
Compound,IC50 (KDM4C),IC50 (KDM5B),IC50 (KDM5B; [1])
"CC(C)c1c(O)nc(-n2ccnc2)nc1-c1cnn(CC(=O)NCCN(CC(F)(F)F)C2CC2)c1 [Example 111, N-[2-[Cyclopropyl(2,2,2-trifluoroethyl)amino]ethyl}-2-{4-[6-hydroxy-2-(1H-imidazol-1-yl)-5-(propan-2-yl)pyrimidin-4-yl]-1H-pyrazol-1-yl}acetamide]",2120 nM,21 nM,–
"CNC(=O)Cn1cc(-c2nc(-n3ccnc3)nc(O)c2C(C)C)cn1 [Example 113, 2-{4-[6-Hydroxy-2-(1H-imidazol-1-yl)-5-(propan-2-yl)pyrimidin-4-yl]-1H-pyrazol-1-yl)-N-methyl-acetamide]",2090 nM,24 nM,–
"CC(C)c1c(O)nc(-n2ccnc2)nc1-c1cnn(CC(=O)NCC(N)=O)c1 [Example 114, N-(Carbamoylmethyl)-2-{4-[6-hydroxy-2-(1H-imidazol-1-yl)-5-(propan-2-yl)pyrimidin-4-yl]-1H-pyrazol-1-yl}-acetamide]",2030 nM,26 nM,–
"CC(C)c1c(O)nc(-n2ccnc2)nc1-c1cnn(CC(=O)NCCN(C)CC(F)(F)F)c1 [Example 116, 2-{4-[6-Hydroxy-2-(1H-imidazol-1-yl)-5-(propan-2-yl)pyrimidin-4-yl]-1H-pyrazol-1-yl}-N-{2-[methyl-(2,2,2-trifluoroethyl)amino]-ethyl}acetamide]",2250 nM,30 nM,–
"CC(C)c1c(O)nc(-n2ccnc2)nc1-c1cnn(CC(=O)N2CCOCC2)c1 [Example 117, 2-{4-[6-Hydroxy-2-(1H-imidazol-1-yl)-5-(propan-2-yl)pyrimidin-4-yl]-1H-pyrazol-1-yl}-1-(morpholin-4-yl)ethan-1-one]",1970 nM,31 nM,–
"COCCNC(=O)Cn1cc(-c2nc(-n3ccnc3)nc(O)c2C(C)C)cn1 [Example 118, 2-{4-[6-Hydroxy-2-(1H-imidazol-1-yl)-5-(propan-2-yl)pyrimidin-4-yl]-1H-pyrazol-1-yl}-N-(2-methoxy-ethyl)acetamide]",3080 nM,33 nM,–
"CNC(=O)c1ccc(-c2nc(-n3ccnc3)nc(O)c2C(C)C)cn1 [Example 120, 5-[6-Hydroxy-2-(1H-imidazol-1-yl)-5-(propan-2-yl)pyrimidin-4-yl]-N-methyl-pyridine-2-carboxamide]",2190 nM,–,18 nM
"CC(=O)N1CCN(CCOc2nc(-n3ccnc3)nc(O)c2C(C)C)CC1 [Example 125, 1-[4-(2-{[6-Hydroxy-2-(1H-imidazol-1-yl)-5-(propan-2-yl)pyrimidin-4-yl]oxy}ethyl)-piperazin-1-yl]ethan-1-one]",2320 nM,–,14 nM
"CC(C)c1c(O)nc(-n2ccnc2)nc1OCC1CN(C(=O)OCc2ccccc2)CCN1 (stereo not drawn) [Example 127, Benzyl 3-({[6-hydroxy-2-(1H-imidazol-1-yl)-5-(propan-2-yl)pyrimidin-4-yl]-oxy}methyl)piperazine-1-carboxylate]",3080 nM,–,18 nM
"CC(C)c1c(O)nc(-n2ccnc2)nc1OCCN1CCCCC1 [Example 130, 2-(1H-Imidazol-1-yl)-6-[2-(piperidin-1-yl)ethoxy]-5-(propan-2-yl)pyrimidin-4-ol]",3670 nM,27 nM,–
"CC(C)c1c(O)nc(-n2ccnc2)nc1OCCC1CCOCC1 [Example 131, 2-(1H-Imidazol-1-yl)-6-[2-(oxan-4-yl)ethoxy]-5-(propan-2-yl)pyrimidin-4-ol]",2090 nM,27 nM,–
"CC(C)c1c(O)nc(-n2ccnc2)nc1OCCN1CCCC1=O [Example 132, 1-(2-{[6-Hydroxy-2-(1H-imidazol-1-yl)-5-(propan-2-yl)pyrimidin-4-yl]oxy}ethyl)-pyrrolidin-2-one]",2410 nM,30 nM,–
"CC(C)c1c(O)nc(-n2ccnc2)nc1OC1CCOC1 (stereo not drawn) [Example 135, 2-(1H-Imidazol-1-yl)-6-(oxolan-3-yloxy)-5-(propan-2-yl)pyrimidin-4-ol]",2050 nM,47 nM,–
"CC(C)c1c(O)nc(-n2ccnc2)nc1OCc1ccncn1 [Example 136, 2-(1H-Imidazol-1-yl)-5-(propan-2-yl)-6-(pyrimidin-4-ylmethoxy)pyrimidin-4-ol]",2410 nM,55 nM,–

# Stronger by IC50 (KDM4C), values ahead:
IC50 (KDM4C),IC50 (KDM5B),IC50 (KDM5B; [1]),Compound
1250 nM,21 nM,–,"CC(C)c1c(O)nc(-n2ccnc2)nc1-c1cnn(CC(=O)N2CCC(C#N)CC2)c1 [Example 110, 1-(2-{4-[6-Hydroxy-2-(1H-imidazol-1-yl)-5-(propan-2-yl)pyrimidin-4-yl]-1H-pyrazol-1-yl}acetyl)-piperidine-4-carbonitrile]"
1600 nM,21 nM,–,"CC(C)c1c(O)nc(-n2ccnc2)nc1-c1cnn(CC(=O)N2CCC(O)C2)c1 (stereo not drawn) [Example 112, 2-{4-[6-Hydroxy-2-(1H-imidazol-1-yl)-5-(propan-2-yl)pyrimidin-4-yl]-1H-pyrazol-1-yl}-1-(3-hydroxy-pyrrolidin-1-yl)ethan-1-one]"
1250 nM,30 nM,–,"CC(C)c1c(O)nc(-n2ccnc2)nc1-c1cnn(CC(=O)NC(CO)C(C)C)c1 (stereo not drawn) [Example 115, 2-{4-[6-Hydroxy-2-(1H-imidazol-1-yl)-5-(propan-2-yl)pyrimidin-4-yl]-1H-pyrazol-1-yl}-N-(1-hydroxy-3-methylbutan-2-yl)acetamide]"
1850 nM,–,39 nM,"CC(C)c1c(O)nc(-n2ccnc2)nc1-c1cnn(CC(=O)N2CCC(O)CC2)c1 [Example 119, 2-{4-[6-Hydroxy-2-(1H-imidazol-1-yl)-5-(propan-2-yl)pyrimidin-4-yl]-1H-pyrazol-1-yl}-1-(4-hydroxy-piperidin-1-yl)ethan-1-one]"
837 nM,18 nM,–,"CC(C)c1c(O)nc(-n2ccnc2)nc1-c1ccc(C(=O)O)nc1 [Example 121, 5-[6-Hydroxy-2-(1H-imidazol-1-yl)-5-(propan-2-yl)pyrimidin-4-yl]pyridine-2-carboxylic acid]"
1270 nM,–,7 nM,"CC(C)c1c(O)nc(-n2ccnc2)nc1OCCN1CCN(C)CC1 [Example 122, 2-(1H-Imidazol-1-yl)-6-[2-(4-methylpiperazin-1-yl)ethoxy]-5-(propan-2-yl)pyrimidin-4-ol]"
1590 nM,9 nM,–,"CC(C)c1c(O)nc(-n2ccnc2)nc1OCCN1CCOCC1 [Example 123, 2-(1H-Imidazol-1-yl)-6-[2-(morpholin-4-yl)ethoxy]-5-(propan-2-yl)pyrimidin-4-ol]"
1200 nM,–,10 nM,"CC(C)c1c(O)nc(-n2ccnc2)nc1OCCN1CCNCC1 [Example 124, 2-(1H-Imidazol-1-yl)-6-[2-(piperazin-1-yl)ethoxy]-5-(propan-2-yl)pyrimidin-4-ol]"
840 nM,15 nM,–,"CC(C)c1c(O)nc(-n2ccnc2)nc1OCC1COCCN1 (stereo not drawn) [Example 126, 2-(1H-Imidazol-1-yl)-6-(morpholin-3-ylmethoxy)-5-(propan-2-yl)pyrimidin-4-ol]"
1400 nM,–,19 nM,"CC(C)c1c(O)nc(-n2ccnc2)nc1OCC1(N)CC1 [Example 128, 6-[(1-Aminocyclopropyl)-methoxy]-2-(1H-imidazol-1-yl)-5-(propan-2-yl)pyrimidin-4-ol]"
1120 nM,27 nM,–,"CC(C)c1c(O)nc(-n2ccnc2)nc1OCCc1ccncc1 [Example 129, 2-(1H-Imidazol-1-yl)-5-(propan-2-yl)-6-[2-(pyridin-4-yl)ethoxy]pyrimidin-4-ol]"
1330 nM,30 nM,–,"COC(=O)COc1nc(-n2ccnc2)nc(O)c1C(C)C [Example 133, Methyl 2-{[6-hydroxy-2-(1H-imidazol-1-yl)-5-(propan-2-yl)pyrimidin-4-yl]oxy}acetate]"
1450 nM,31 nM,–,"CC(C)c1c(O)nc(-n2ccnc2)nc1OCc1ccccc1 [Example 134, 6-(Benzyloxy)-2-(1H-imidazol-1-yl)-5-(propan-2-yl)pyrimidin-4-ol]"
